Like-named read-outs stand apart in the source and are kept apart here. *1 amine or outer side, *2 acyl side, *3 side chain or, on linkers, in order; H or OH if unused. Where a SMILES comes first, the peptide text is derived from it. Where no end group is shown, it is not given here. [ ]: non-standard residue; d: D form. The star is where a group is joined. Leuψ(CH2NH)ValIleHisOH = CC[C@H](C)[C@H](NC(=O)[C@@H](NC[C@H](CC(C)C)N*)C(C)C)C(=O)N[C@@H](Cc1c[nH]cn1)C(=O)O; X3 = CC[C@H](C)[C@H](NC(=O)[C@@H](NC[C@H](CC(C)C)N*)C(C)C)C(=O)N[C@@H](Cc1ccc(O)cc1)C(=O)O; X5 = CC(C)C[C@@H](CN[C@H](C(=O)N[C@@H](Cc1c[nH]cn1)C(=O)NCCCCCN)C(C)C)N*; X1 = CC(C)C[C@H](N[*:1])[C@@H](O)C[C@H](C(=O)[*:2])C(C)C; Boc = CC(C)(C)OC(=O)*
Biological target: T1, human renin (Homo sapiens, UniProt P00797)
T1 construct: angiotensin-I released from human renin substrate by human resin in human plasma; from tissue; host or cells: human plasma (containing EDTA)
T1 sequence (P00797 67-406): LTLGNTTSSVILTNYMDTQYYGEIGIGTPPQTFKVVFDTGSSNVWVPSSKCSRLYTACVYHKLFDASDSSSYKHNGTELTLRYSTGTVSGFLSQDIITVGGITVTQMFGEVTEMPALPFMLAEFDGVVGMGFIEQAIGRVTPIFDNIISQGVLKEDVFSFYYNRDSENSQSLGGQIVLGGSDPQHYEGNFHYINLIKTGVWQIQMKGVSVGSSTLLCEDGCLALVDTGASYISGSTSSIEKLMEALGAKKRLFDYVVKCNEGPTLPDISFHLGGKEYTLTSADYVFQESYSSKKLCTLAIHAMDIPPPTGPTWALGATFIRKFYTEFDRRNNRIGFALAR
Experiment: human renin-renin substrate reaction in vitro; radioimmunoassay of angiotensin-I released in human plasma
Assay type: biochemical
Text: Preliminary activity test results in the human […] substrate reaction in vitro are given, with comparative figures for the tetrapeptide analogue (III). […] The test results given herein are based on the methods described by J. A. Miller et al in Clinica Chimica Acta (1980) 101 5-15 and K. Poulsen and J. Jorgensen in J. Clin. Endocrinol. Metab. (1974) 39 816, and is based on the measurement, by radioimmunoassay, of angiotensin-I released from human renin substrate by human resin in human plasma. The inhibitor is dissolved in 0.01N HCl (10 μl) and added to hmman plasma (75 μl) containing EDTA, and angiotensin-I antibody (15 μl) in 3M-Tris/HCl buffer (pH 6.9). After incubation at 37° C. for 0-120 minutes, the enzymic reaction is quenched by the addition of ice-cold 0.25M Tris/HCl buffer (pH 7.4) containing 0.01% of bovine serum albumin. 125I-labelled angiotensin-I is added, followed by equilibration at 4° C. for 48 hours. Free and bound ligand are separated by the addition of dextrancoated charcoal, and the amount of bound radio-ligand determined in a gamma counter.

[1] = Table 5, human renin-renin substrate reaction in vitro, read-out: IC50
[2] = Table 2, read-out: IC50 μM v/s human renin
[3] = Table I, human renin in human plasma, read-out: IC50, μM human

IC50 [3] | also measured | Compound
– | IC50 [1]: 0.26 µM | CC[C@H](C)[C@H](NC(=O)[C@@H](NC[C@H](CC(C)C)NC(=O)[C@H](Cc1c[nH]cn1)NC(=O)[C@H](Cc1ccccc1)NC(=O)[C@@H]1CCCN1C(=O)[C@@H](N)Cc1c[nH]cn1)C(C)C)C(=O)N[C@@H](Cc1c[nH]cn1)C(=O)O [Example V, H-His-Pro-Phe-His-Leu-reduced-Val-Ile-His-OH] (H-HPFH-{Leuψ(CH2NH)ValIleHisOH})
– | IC50 [2]: 29 µM | CC[C@H](C)[C@H](NC(=O)[C@@H](C[C@H](O)[C@@H](N)CC(C)C)C(C)C)C(=O)N[C@@H](Cc1c[nH]cn1)C(=O)O [XLIII]
– | IC50 [1]: 1.5 µM | CC(C)C[C@@H](CN([C@@H](CC(C)C)C(=O)N[C@H](C(=O)N[C@@H](Cc1ccc(O)cc1)C(=O)O)C(C)C)S(=O)(=O)c1ccccc1)NC(=O)[C@H](Cc1c[nH]cn1)NC(=O)[C@H](Cc1ccccc1)NC(=O)[C@@H]1CCCN1C(=O)[C@@H](N)Cc1c[nH]cn1 [Example III, H-His-Pro-Phe-His-Leu-reduced (SO2 Ph)-Leu-Val-Tyr-OH]
– | IC50 [1]: 1 µM | CC(C)C[C@@H](CN[C@@H](CC(C)C)C(=O)N[C@H](C(=O)N[C@@H](Cc1ccc(O)cc1)C(=O)O)C(C)C)NC(=O)[C@H](Cc1c[nH]cn1)NC(=O)[C@H](Cc1ccccc1)NC(=O)[C@@H]1CCCN1C(=O)[C@H](N)Cc1c[nH]cn1 [Example IV, H-DHis-Pro-Phe-His-Leu-reduced-Leu-Val-Tyr-OH]
0.2 µM | – | CC[C@H](C)[C@H](NC(=O)[C@@H](NC[C@H](CC(C)C)NC(=O)[C@H](Cc1c[nH]cn1)NC(=O)[C@H](Cc1ccccc1)NC(=O)[C@@H]1CCCN1C(=O)[C@@H](Cc1c[nH]cn1)NC(=O)[C@@H]1CCCN1)C(C)C)C(=O)N[C@@H](Cc1c[nH]cn1)C(=O)N[C@H](CCCCN)C(=O)O [Example XL]
0.01 µM | – | CC[C@H](C)[C@H](NC(=O)[C@@H](NC[C@H](CC(C)C)NC(=O)[C@H](Cc1c[nH]cn1)NC(=O)[C@H](Cc1ccccc1)NC(=O)[C@@H]1CCCN1C(=O)[C@H](Cc1c[nH]cn1)NC(=O)[C@@H]1CCCN1)C(C)C)C(=O)N[C@@H](Cc1c[nH]cn1)C(=O)O [XXII] (H-PHPFH-{Leuψ(CH2NH)ValIleHisOH})
– | IC50 [1]: 400 µM | HPFHLVIH [corresponding nonisosteric peptide, reference compound]
– | IC50 [1]: 1.3 µM | CC(C)[C@H](NC(=O)[C@H](Cc1ccccc1)NC[C@H](Cc1ccccc1)NC(=O)[C@H](Cc1c[nH]cn1)NC(=O)[C@H](Cc1ccccc1)NC(=O)[C@@H]1CCCN1C(=O)[C@@H](N)Cc1c[nH]cn1)C(=O)N[C@@H](Cc1ccc(O)cc1)C(=O)O [Example VIII]
0.008 µM | – | CC[C@H](C)[C@H](NC(=O)[C@@H](NC[C@H](CC(C)C)NC(=O)[C@H](Cc1c[nH]cn1)NC(=O)[C@H](Cc1ccccc1)NC(=O)[C@@H]1CCCN1C(=O)[C@H](Cc1c[nH]cn1)NC(=O)[C@@H]1CCCN1)C(C)C)C(=O)N[C@@H](Cc1c[nH]cn1)C(=O)N[C@@H](CCCCN)C(=O)O [XIX]
– | IC50 [2]: 0.0035 µM | CC[C@H](C)[C@H](NC(=O)[C@@H](C[C@H](O)[C@H](CC(C)C)NC(=O)[C@H](Cc1c[nH]cn1)NC(=O)[C@H](Cc1ccccc1)NC(=O)OC(C)(C)C)C(C)C)C(=O)N[C@@H](Cc1c[nH]cn1)C(=O)OC [Example LI] (Boc-FH[X1]IH-OMe)
3 µM | – | CC[C@H](C)[C@H](NC(=O)[C@@H](NC[C@H](CC(C)C)NC(=O)[C@H](Cc1c[nH]cn1)NC(=O)[C@H](Cc1ccccc1)NC(=O)[C@@H]1CCCN1C(=O)[C@H](Cc1c[nH]cn1)NC(=O)[C@@H]1CCCN1)C(C)C)C(=O)N[C@@H](Cc1ccc(O)cc1)C(=O)NCCCCCN [XX]
– | IC50 [2]: 0.007 µM | CC[C@H](C)[C@H](NC(=O)[C@@H](C[C@H](O)[C@H](CC(C)C)NC(=O)[C@H](Cc1c[nH]cn1)NC(=O)[C@H](Cc1ccccc1)NC(=O)OC(C)(C)C)C(C)C)C(=O)N[C@@H](Cc1c[nH]cn1)C(=O)O [Example XLVI] (Boc-FH[X1]IH-OH)
0.55 µM | – | CC[C@H](C)[C@H](NC(=O)[C@@H](NC[C@H](CC(C)C)NC(=O)[C@H](Cc1c[nH]cn1)NC(=O)[C@H](Cc1ccccc1)NC(=O)[C@@H]1CCCN1C(=O)[C@@H](N)CCCNC(=N)N)C(C)C)C(=O)N[C@@H](Cc1ccc(O)cc1)C(=O)O [XXIV]
0.06 µM | – | CC[C@H](C)[C@H](NC(=O)[C@@H](NC[C@H](CC(C)C)NC(=O)[C@H](Cc1c[nH]cn1)NC(=O)[C@H](Cc1ccccc1)NC(=O)[C@@H]1CCCN1C(=O)[C@@H](N)Cc1c[nH]cn1)C(C)C)C(=O)N[C@@H](Cc1c[nH]cn1)C(=O)N[C@@H](CCCCN)C(=O)O [XXXI]
– | IC50 [2]: 11 µM | CC[C@H](C)[C@H](NC(=O)[C@@H](C[C@H](O)[C@@H](N)CC(C)C)C(C)C)C(=O)N[C@@H](Cc1c[nH]cn1)C(=O)N[C@@H](CCCCN)C(=O)O [Example XLI]
– | IC50 [1]: 17 µM | CC(C)C[C@@H](CN[C@@H](CC(C)C)C(=O)N[C@H](C(=O)N[C@@H](Cc1ccc(O)cc1)C(=O)O)C(C)C)NC(=O)[C@H](Cc1c[nH]cn1)NC(=O)[C@H](Cc1ccccc1)NC(=O)[C@@H]1CCCN1 [Example II, H-Pro-Phe-His-Leu-reduced-Leu-Val-Tyr-OH]
– | IC50 [2]: 5 µM | CC[C@H](C)[C@H](NC(=O)[C@@H](C[C@H](O)[C@H](CC(C)C)NC(=O)[C@H](Cc1c[nH]cn1)NC(=O)[C@@H](N)Cc1ccccc1)C(C)C)C(=O)N[C@@H](Cc1c[nH]cn1)C(=O)O [Example XLVII] (H-FH[X1]IH-OH)
0.6 µM | – | CC[C@H](C)[C@H](NC(=O)[C@@H](NC[C@H](CC(C)C)NC(=O)[C@H](Cc1c[nH]cn1)NC(=O)[C@H](Cc1ccccc1)NC(=O)[C@@H]1CCCN1C(C)=O)C(C)C)C(=O)N[C@@H](Cc1c[nH]cn1)C(=O)N[C@H](CCCCN)C(=O)O [XXXVII]
0.1 µM | – | CC[C@H](C)[C@H](NC(=O)[C@@H](NC[C@H](CC(C)C)NC(=O)[C@H](Cc1c[nH]cn1)NC(=O)[C@H](Cc1ccccc1)NC(=O)[C@@H]1CCCN1C(=O)[C@H](Cc1c[nH]cn1)NC(=O)[C@@H]1CCCN1)C(C)C)C(=O)N[C@@H](Cc1c[nH]cn1)C(=O)N[C@H](CCCCN)C(=O)O [XXXVIII]
1 µM | – | CC[C@H](C)[C@H](NC(=O)[C@@H](NC[C@H](CC(C)C)NC(=O)[C@H](Cc1c[nH]cn1)NC(=O)[C@H](Cc1ccccc1)NC(=O)[C@@H]1CCCN1C(=O)[C@@H](N)Cc1c[nH]cn1)C(C)C)C(=O)N[C@H](Cc1ccc(O)cc1)C(=O)O [XVI]
0.048 µM | – | CC[C@H](C)[C@H](NC(=O)[C@@H](NC[C@H](CC(C)C)NC(=O)[C@H](Cc1c[nH]cn1)NC(=O)[C@H](Cc1ccccc1)NC(=O)[C@@H]1CCCN1C(=O)[C@H](Cc1c[nH]cn1)NC(=O)[C@@H]1CCCN1)C(C)C)C(=O)N[C@@H](Cc1ccc(O)cc1)C(=O)O [XXX] (H-PHPFH-X3)
0.2 µM | – | CC[C@H](C)[C@H](NC(=O)[C@@H](NC[C@H](CC(C)C)NC(=O)[C@H](Cc1c[nH]cn1)NC(=O)[C@H](Cc1ccccc1)NC(=O)[C@@H]1CCCN1C(=O)[C@H](N)Cc1c[nH]cn1)C(C)C)C(=O)N[C@@H](Cc1c[nH]cn1)C(=O)N[C@H](CCCCN)C(=O)O [XXXIX]
0.05 µM | – | CC[C@H](C)[C@H](NC(=O)[C@@H](NC[C@H](CC(C)C)NC(=O)[C@H](Cc1c[nH]cn1)NC(=O)[C@H](Cc1ccccc1)NC(=O)[C@@H]1CCCN1C(=O)[C@@H](N)Cc1c[nH]cn1)C(C)C)C(=O)N[C@@H](Cc1c[nH]cn1)C(=O)N[C@H](CCCCN)C(=O)O [XXI]
3 µM | – | CC(C)C[C@@H](CN[C@H](C(=O)N[C@@H](Cc1c[nH]cn1)C(=O)NCCCCCN)C(C)C)NC(=O)[C@H](Cc1c[nH]cn1)NC(=O)[C@H](Cc1ccccc1)NC(=O)[C@@H]1CCCN1C(=O)[C@H](Cc1c[nH]cn1)NC(=O)[C@@H]1CCCN1 [XVIII] (H-PHPFH-X5)
0.025 µM | – | CC[C@H](C)[C@H](NC(=O)[C@@H](NC[C@H](CC(C)C)NC(=O)[C@H](Cc1c[nH]cn1)NC(=O)[C@H](Cc1ccccc1)NC(=O)[C@@H]1CCCN1C(=O)[C@H](Cc1c[nH]cn1)NC(=O)[C@H]1CCCN1)C(C)C)C(=O)N[C@@H](Cc1c[nH]cn1)C(=O)O [XXIII] (H-[dP]HPFH-{Leuψ(CH2NH)ValIleHisOH})
– | IC50 [1]: 1 µM | CC(C)C[C@@H](CN[C@@H](CC(C)C)C(=O)N[C@H](C(=O)N[C@@H](Cc1ccc(O)cc1)C(=O)O)C(C)C)NC(=O)[C@H](Cc1c[nH]cn1)NC(=O)[C@H](Cc1ccccc1)NC(=O)[C@@H]1CCCN1C(=O)[C@@H](N)Cc1c[nH]cn1 [Example I, H-His-Pro-Phe-His-Leu-reduced-Leu-Val-Tyr-OH]
5.5 µM | – | CC[C@H](C)[C@H](NC(=O)[C@@H](NC[C@H](CC(C)C)NC(=O)[C@H](Cc1c[nH]cn1)NC(=O)[C@H](Cc1ccccc1)NC(=O)[C@H]1CCCN1C(=O)[C@@H](N)Cc1c[nH]cn1)C(C)C)C(=O)N[C@@H](Cc1c[nH]cn1)C(=O)O [XXXII] (H-H[dP]FH-{Leuψ(CH2NH)ValIleHisOH})
– | IC50 [2]: 0.018 µM | CC[C@H](C)[C@H](NC(=O)[C@@H](C[C@H](O)[C@H](CC(C)C)NC(=O)[C@H](Cc1c[nH]cn1)NC(=O)[C@H](Cc1ccccc1)NC(=O)OC(C)(C)C)C(C)C)C(=O)N[C@@H](Cc1ccccc1)C(=O)OC [XLIX] (Boc-FH[X1]IF-OMe)

— patent publication US4713445A, “Renin inhibitors and treatments using them” (priority 1983, dated 1987)
